Measured values reported in PMC9326216, “Treatment of Cardiovascular Dysfunction with PDE3-Inhibitors in Moderate and Severe Hypothermia—Effects on Cellular Elimination of Cyclic Adenosine Monophosphate and Cyclic Guanosine Monophosphate” (Frontiers in Physiology, 2022).

Test system: erythrocytes
Test: Intracellular access of the drugs in erythrocytes (LC-MS)
Assay type: in vitro ADME, human
Conditions: 30 min incubation, milrinone 10 µM, amrinone 100 µM, levosimendan 1 µM
Description: Fresh (<24 h) EDTA blood from healthy donors (n = 18) was obtained and washed with Krebs-Ringer-Phosphate-Buffer containing glucose (KRPB/G, pH 7.4) and centrifuged (10 min, 1,000 g) three consecutive times. Plasma and buffy coat were removed. KRPB/G was added to the cell solution to bring it to the ratio 1:2.5. Hematocrit (Hct) was measured and adjusted with additional buffer to reach 0.44, in order to give the final Hct of 0.40 in the incubation solution. […] The reaction was stopped by placing the test tubes on ice and adding 4 ml of ice cold KRFB/G. The samples were subsequently centrifugated (5 min, 600 g), then washed with KRFB/G once more and centrifugation was repeated twice. 50 µl of the remaining red blood cell suspension was transferred to Eppendorf tubes. 50 µl 500 nM IS-Milrinone-d3 was added as an internal standard (TLC Pharmaceutical Standards Ltd.). 200 µl ZnSO4 was added to each test sample, to induce lysis of the cells, and mixed in a vortex mixer. 30 µl of the samples were used for measurement of protein concentration, the rest was mixed with 500 µl acetonitrile and centrifugated (2 min, 13400 g). Finally, 100 µl of the solution was collected for analysis using mass spectrometry (MS).
Liquid chromatography tandem mass spectrometry (LC-MS) was used to assess concentrations of the inhibitors for experiments performed to determine intracellular access of these drugs, as well as to quantify levels of cAMP/AMP and cGMP/GMP for the PDE3-and PDE5-inhibition plots. Internal standards were used, as described previously. There was a linearity from 0.2 nM to at least 2000 nM (r^2 > 0.998) for cAMP, AMP, and cGMP. For GMP, linearity was present from 2 nM to at least 2000 nM (r^2 > 0.998). Concerning PDE3-inhibitors, the linearity was found at 10 nM to at least 5,000 nM (r^2 > 0.99). Lower limit of quantification (LLOQ) was 0.2 for cAMP, cGMP, and AMP, 2 nM for GMP and 10 nM for PDE3-inhibitors (2 µl injection volume).
Intracellular concentrations of drugs were adjusted for protein concentrations in each sample. The total incubation concentrations were also adjusted for protein concentrations to evaluate the degree of access in percentage. Statistical analysis was performed using one-way ANOVA with Holm-Sidak multiple comparisons post hoc test at each temperature. ANOVA on ranks with Dunn post hoc test was used when the results were not normally distributed. The results are presented as means ± standard error of mean (SEM). p-values < 0.05 were considered significant results. Degrees of freedom (dF) is given as between group values. SigmaPlot 14.0 (Systat Software, San Jose, CA, United States) was used for all analysis, as well as creating the graphs.

Compound	Intracellular access, % of drug concentration per gram protein in the incubation solution (28°C)	Intracellular access, % of drug concentration per gram protein in the incubation solution (34°C)
C[C@@H]1CC(=O)NN=C1c1ccc(NN=C(C#N)C#N)cc1 [Levosimendan]	18.29 ± 3.122%	25.06 ± 5.289%
Nc1cc(-c2ccncc2)c[nH]c1=O [Amrinone]	1.66 ± 0.216%	2.303 ± 0.284%
